{"source": "patent US20250269091A1", "about": "“UTILIZATION OF ELECTROPHORETIC DEPOSITION TO COAT MEDICAL IMPLANTS WITH THERAPEUTIC AGENTS IN A STERILE CLINICAL SETTING” (Rush University Medical Center, priority 2022, published 2025)", "key": {"S. aureus Xen36": {"tested_on": "S. aureus Xen36", "assay": "Minimal inhibitory concentration by broth dilution method", "type": "cell-based, Staphylococcus aureus", "conditions": "against S. aureus Xen36, broth dilution", "procedure": "FIGS. 17-20 show tests of the titanium rod of FIG. 3 against Staphylococcus aureus by agar dilution and liquid culture methods. To determine the antimicrobial activity of the loaded wires, S. aureus (Xen36, derived from ATCC 49525) bacteria were cultured overnight at 37° C. in Luria-Bertani medium. The minimal inhibitory concentration of gentamicin was determined by the broth dilution method. In the agar diffusion test, 100 μl of 1×10^6 colony forming units/ml S. aureus solution was inoculated on agar plates and dried. […] The inhibition zones (IZ) 1708, 1710 around the components were measured following 24 hours incubation at 37° C.\nIn the agar diffusion assay, an elliptical shaped IZ 1708 formed around the loaded wire 1702 (35 mm shorter and 45 mm longer axis)."}, "[1]": {"assay": "Gentamicin release from titanium nanotubes, fractional volume sampling", "type": "physicochemical", "procedure": "FIG. 13 illustrates a line graph showing the amount of gentamicin 2300 released from a titanium surface per hour 2400 after a two-step EPD process, as described above. […] Fractional volume sampling was carried out for 3 days. FIG. 15 illustrates the gentamicin concentration in the release solution, and FIG. 16 represents the cumulative release of gentamicin. An initial burst release was observed of around 78% in the first 10 minutes, then gentamicin was released at a slower rate up to 3 days."}, "S. aureus": {"tested_on": "S. aureus", "conditions": "4 ml of 1×10^5 CFU/ml S. aureus, 24 hours", "description": "A gentamicin-loaded chitosan-coated wire was placed in one tube (loaded wire, LW). 0.25 mg gentamicin was added to the second tube (antibiotic control, AC). The third tube contained bacteria only and served as growth control (GC). The tubes were incubated for 24 hours, and the absorbance of the solutions was measured with a spectrophotometer in each tube."}}, "data": [{"substance": "gentamicin", "values": [{"measurement": "MIC", "setting": "S. aureus Xen36", "value": 3.6, "unit": "µg/mL"}, {"measurement": "duration of slower release of gentamicin", "setting": "[1]; after the initial burst", "value": "up to 3 days"}, {"measurement": "drug concentration in release solution relative to MIC", "setting": "[1]; entire period tested (3 days)", "value": "stayed above the determined minimum inhibitory concentration (MIC)"}, {"measurement": "initial burst release of gentamicin", "setting": "[1]; first 10 minutes, titanium nanotube surface after two-step EPD with gentamicin and chitosan", "value": "around 78%"}, {"measurement": "cumulative amount of gentamicin detected", "setting": "[1]; release over 3 days, titanium nanotube surface after two-step EPD", "value": "400 to 550", "unit": "µg"}, {"measurement": "bacterial density (absorbance) compared to growth control", "setting": "S. aureus", "value": "significantly decreased bacterial density"}]}]}
